Drawing on patent US20230233650A1, “NOVEL FATTY ACID MODIFIED UROCORTIN 2 DERIVATIVES AND THE USES THEREOF” (Novo Nordisk A/S, priority 2021, published 2023), this text covers EC50 for two compounds.

The structures appear in SMILES notation. Numbered stars: 1 amine (or outer) side, 2 acyl side, 3 side chain; on linkers, the order of the positions; unused ones are H or OH. Side chains are listed from the residue outwards. Peptide text beside a SMILES is read from it. * marks the point of attachment. C20 diacid = O=C(O)CCCCCCCCCCCCCCCCCCC(=O)*; γGlu = O=C(O)[C@H](CCC(=O)[*:2])N[*:1]; AEEA = NCCOCCOCC(=O)O

In general, EC50 refers to the midpoint of the concentration-response curve.

The assay concerns the target T1, Human CRF1 receptor (Homo sapiens, UniProt P34998).
T1 construct: host or cells: CHO-K1 (membrane preparation)
T1 sequence (P34998 24-415): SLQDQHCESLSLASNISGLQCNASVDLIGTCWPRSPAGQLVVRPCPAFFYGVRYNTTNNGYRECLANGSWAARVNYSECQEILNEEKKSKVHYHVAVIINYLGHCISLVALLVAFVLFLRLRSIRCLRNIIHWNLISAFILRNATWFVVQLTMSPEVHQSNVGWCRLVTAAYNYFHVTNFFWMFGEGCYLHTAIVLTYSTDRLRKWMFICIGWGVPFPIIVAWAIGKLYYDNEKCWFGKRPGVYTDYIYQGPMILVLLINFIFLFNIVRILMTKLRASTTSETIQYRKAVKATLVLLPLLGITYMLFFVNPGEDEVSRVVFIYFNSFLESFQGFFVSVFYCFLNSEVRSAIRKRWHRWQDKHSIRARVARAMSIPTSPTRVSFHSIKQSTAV
Nature of the assay: CRF1 receptor CHO cell β-Arrestin recruitment assay (PathHunter). In kind it is cell-based. The note with it: CHO-K1 cells, 0.1% ovalbumin. On the procedure: The purpose of this investigation was to test the in vitro agonistic activity (potency) of the compounds of the invention to receptor subtype CRF1 and CRF2. […] The native, human Ucn1 and Ucn2 peptides were included as references. Assay principle: Activated G-protein coupled receptors (GPCRs) can interact with the Arrestin family of signalling proteins. The potency of peptides for CRF induced Arrestin recruitment is determined using the PathHunter Enzyme Fragment Complementation approach substantially as described in von […] et al., FASEB J., 2007, 3819, 26 and Hamdouchi et al., J. Med. Chem., 2016, 59, 10891-10916. The target GPCR is tagged with the small fragment of β-gal called ProLinkTM, a low affinity version of enzyme donor and co-expressed in cells stably expressing β-Arrestin tagged with enzyme acceptor. Activation of the GPCR stimulates binding of β-Arrestin to the ProLink-tagged GPCR, forcing complementation of ProLink and enzyme acceptor, resulting in the formation of an active β-gal enzyme. The resulting active enzyme hydrolyses substrate present in the PathHunter detection reagents to generate light. […] Plates were first incubated for 90 minutes in a 37° C., 5% CO2 incubator and then 5 μL of PathHunter detection reagent was added (DiscoveRx, 93-0001) and the plates were incubated at room temperature for 60 minutes after which the luminescence signal was measured (BMG […]). […]
On the technique in general: Activated receptors often draw arrestin, which recruitment assays turn into a signal.

`CC[C@H](C)[C@H](NC(=O)[C@H](CCC(=O)O)NC(=O)[C@H](C)NC(=O)[C@H](CC(N)=O)NC(=O)[C@@H](NC(=O)[C@@H](NC(=O)[C@H](C)NC(=O)[C@H](CCC(N)=O)NC(=O)[C@H](CCC(=O)O)NC(=O)[C@H](CCCNC(=N)N)NC(=O)[C@H](C)NC(=O)[C@H](C)NC(=O)[C@H](CCCNC(=N)N)NC(=O)[C@H](C)NC(=O)[C@H](CCCNC(=N)N)NC(=O)[C@H](C)NC(=O)[C@H](CCC(N)=O)NC(=O)[C@H](CCC(=O)O)NC(=O)[C@H](CC(C)C)NC(=O)[C@H](CC(C)C)NC(=O)[C@@H](NC(=O)[C@H](CCC(N)=O)NC(=O)[C@H](CC(C)C)NC(=O)[C@H](CC(C)C)NC(=O)CNC(=O)[C@@H](NC(=O)[C@@H]1CCCN1C(=O)[C@@H](NC(=O)[C@H](CC(=O)O)NC(=O)[C@H](CC(C)C)NC(=O)[C@H](CO)NC(=O)[C@H](CC(C)C)NC(=O)[C@@H](NC(=O)[C@@H](NC(=O)[C@@H](N)CCCCNC(=O)COCCOCCNC(=O)COCCOCCNC(=O)CC[C@H](NC(=O)CC[C@H](NC(=O)CC[C@H](NC(=O)CCCCCCCCCCCCCCCCCCC(=O)O)C(=O)O)C(=O)O)C(=O)O)[C@@H](C)CC)C(C)C)C(C)C)[C@@H](C)CC)[C@@H](C)CC)[C@@H](C)O)[C@@H](C)O)C(=O)N[C@@H](CC(C)C)C(=O)N[C@@H](C)C(=O)N[C@@H](CCC(=O)O)C(=O)N[C@H](C(N)=O)C(C)C` [Compound 3] (H-K([AEEA-AEEA-γGlu-γGlu-γGlu-C20 diacid])IVLSLDVPIGLLQILLEQARARAAREQATTNAEILAEV-NH2) had an EC50 of more than 10 µM.
The same measure for `CC[C@H](C)[C@H](NC(=O)[C@H](CCC(=O)O)NC(=O)[C@H](C)NC(=O)[C@H](CC(N)=O)NC(=O)[C@@H](NC(=O)[C@@H](NC(=O)[C@H](C)NC(=O)[C@H](CCC(N)=O)NC(=O)[C@H](CCC(=O)O)NC(=O)[C@H](CCCNC(=N)N)NC(=O)[C@H](C)NC(=O)[C@H](C)NC(=O)[C@H](CCCNC(=N)N)NC(=O)[C@H](C)NC(=O)[C@H](CCCNC(=N)N)NC(=O)[C@H](C)NC(=O)[C@H](CCC(N)=O)NC(=O)[C@H](CCC(=O)O)NC(=O)[C@H](CC(C)C)NC(=O)[C@H](CC(C)C)NC(=O)[C@@H](NC(=O)[C@H](CCC(N)=O)NC(=O)[C@H](CC(C)C)NC(=O)[C@H](CC(C)C)NC(=O)CNC(=O)[C@@H](NC(=O)[C@@H]1CCCN1C(=O)[C@@H](NC(=O)[C@H](CC(=O)O)NC(=O)[C@H](CC(C)C)NC(=O)[C@H](CO)NC(=O)[C@H](CC(C)C)NC(=O)[C@@H](NC(=O)[C@@H](NC(=O)[C@@H](N)CCCCNC(=O)COCCOCCNC(=O)COCCOCCNC(=O)CC[C@H](NC(=O)CC[C@H](NC(=O)CC[C@H](NC(=O)CCCCCCCCCCCCCCCCCCC(=O)O)C(=O)O)C(=O)O)C(=O)O)[C@@H](C)CC)C(C)C)C(C)C)[C@@H](C)CC)[C@@H](C)CC)[C@@H](C)O)[C@@H](C)O)C(=O)N[C@@H](CC(C)C)C(=O)N[C@@H](CCC(=O)O)C(=O)N[C@@H](CCCNC(=N)N)C(=O)N[C@H](C(N)=O)C(C)C` [Compound 4] (H-K([AEEA-AEEA-γGlu-γGlu-γGlu-C20 diacid])IVLSLDVPIGLLQILLEQARARAAREQATTNAEILERV-NH2): more than 10 µM.
